Counter-ions that a name gives are not always drawn.
System: NQO1 specific enzyme activity in BEAS-2B cells
Assay: BEAS-2B NQO1 MTT assay
Format: cell-based
Details: Homo sapiens, BEAS-2B, 48 h, BEAS-2B cells, 48 hours with compound, MTT readout; read-out: EC50 of NQO1 specific activity induction
Method in brief: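 NQO1 specific activity, an NRF2 activation marker, read kinetically as absorbance change at 570 nm for 30 min after MTT cocktail addition to crude lysates of BEAS-2B cells exposed 48 h to compound. Three-parameter fit of Delta OD/min against log concentration gives EC50; lysate portion used for Cell Titer Glo.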

| SMILES | EC50 |
| --- | --- |
| Cc1ccc([C@H](CC(=O)O)c2ccc3c(nnn3C)c2C)cc1CN1Cc2cc(F)ccc2OC(C)(C)C1 [Example 62, (S)-3-(1,4-Dimethyl-1H-benzo[d][1,2,3]triazol-5-yl)-3-(3-((7-fluoro-2,2-dimethyl-2,3-dihydrobenzo[f][1,4]oxazepin-4(5H)-yl)methyl)-4-methylphenyl)propanoic acid, 1.5formic acid salt] | 10 to 100 nM |
| COc1ccc2c(c1)CN(Cc1cc([C@H](CC(=O)O)c3ccc4c(nnn4C)c3C)ccc1C)CC(C)(C)O2 [Example 165, (S)-3-(1,4-Dimethyl-1H-benzo[d][1,2,3]triazol-5-yl)-3-(3-((7-methoxy-2,2-dimethyl-2,3-dihydrobenzo[f][1,4]oxazepin-4(5H)-yl)methyl)-4-methylphenyl)propanoic acid, 0.5 Formic Acid Salt] | 1 to 10 nM |
| CC[C@@H]1CN(Cc2cc([C@H](CC(=O)O)c3ccc4c(nnn4CC)c3Cl)ccc2C)Cc2ccccc2O1 [Example 56, (S)-3-(4-Chloro-1-ethyl-1H-benzo[d][1,2,3]triazol-5-yl)-3-(3-(((R)-2-ethyl-2,3-dihydrobenzo[f][1,4]oxazepin-4(5H)-yl)methyl)-4-methylphenyl)propanoic acid] | 10 to 100 nM |
| CC[C@@H]1CN(Cc2cc([C@@H](CC(=O)O)c3ccc4c(nnn4C)c3C)ccc2C)Cc2ccccc2O1 [Example 51, (R)-3-(1,4-Dimethyl-1H-benzo[d][1,2,3]triazol-5-yl)-3-(3-(((R)-2-ethyl-2,3-dihdyrobenzo[f][1,4]oxazepin-4(5H)-yl)methyl)-4-methylphenyl)propanoic acid, formic acid salt] | 100 to 1000 nM |
| Cc1ccc(C(CC(=O)O)c2ccc3c(nnn3C)c2C)cc1CN1Cc2ccccc2OC(C(C)C)C1 (centres unmarked) [Example 72, 3-(1,4-dimethyl-1H-benzo[d][1,2,3]triazol-5-yl)-3-(3-((2-isopropyl-2,3-dihydrobenzo[f][1,4]oxazepin-4(5H)-yl)methyl)-4-methylphenyl)propanoic acid, formic acid salt] | 1000 to 10000 nM |
| Cc1ccc(C(CCc2cn(C)nn2)CC(=O)O)cc1Cn1ccnc1CC1CCCCC1 (centres unmarked) [Example 130, 3-(3-((2-(Cyclohexylmethyl)-1H-imidazol-1-yl)methyl)-4-methylphenyl)-5-(1-methyl-1H-1,2,3-triazol-4-yl)pentanoic Acid] | 100 to 1000 nM |
| CC[C@@H]1CN(Cc2cc([C@H](c3ccc4c(nnn4CC)c3C)[C@H](C)C(=O)O)ccc2C)Cc2cnccc2O1 [Example 197, (2S,3R)-3-(3-(((R)-2-Ethyl-2,3-dihydropyrido[3,4-f][1,4]oxazepin-4(5H)-yl)methyl)-4-methylphenyl)-3-(1-ethyl-4-methyl-1H-benzo[d][1,2,3]triazol-5-yl)-2-methylpropanoate, Sodium salt] | 10 to 100 nM |
| CC[C@@H]1CN(Cc2cc(C(CC(=O)O)c3ccc4c(nnn4C)c3C)ccc2C)Cc2ccc(F)cc2O1 (stereo partly drawn) [Example 75, 3-(1,4-Dimethyl-1H-benzo[d][1,2,3]triazol-5-yl)-3-(3-(((R)-2-ethyl-8-fluoro-2,3-dihydrobenzo[f][1,4]oxazepin-4(5H)-yl)methyl)-4-methylphenyl)propanoic Acid, Formic Acid Salt] | 100 to 1000 nM |
| CC[C@@H]1CN(Cc2cc([C@@H](c3ccc4c(nnn4C)c3C)C(C)(C)C(=O)O)ccc2C)Cc2cnc(Cl)cc2O1 [Example 29] | < 1 nM |
| Cc1ccc([C@@H](c2ccc3c(nnn3C)c2C)C(C)(C)C(=O)O)cc1Cn1ccnc1CN1CCCCCC1 [Example 126, (S)-3-(3-((2-(Azepan-1-ylmethyl)-1H-imidazol-1-yl)methyl)-4-methylphenyl)-3-(1,4-dimethyl-1H-benzo[d][1,2,3]triazol-5-yl)-2,2-dimethylpropanoate, Sodium salt] | 1 to 10 nM |
| Cc1ccc([C@H](CC(=O)O)c2ccc3c(nnn3C)c2C)cc1CN1Cc2cccc(F)c2OC(C)(C)C1 [Example 178, (S)-3-(1,4-Dimethyl-1H-benzo[d][1,2,3]triazol-5-yl)-3-(3-((9-fluoro-2,2-dimethyl-2,3-dihydrobenzo[f][1,4]oxazepin-4(5H)-yl)methyl)-4-methylphenyl)propanoic acid] | 10 to 100 nM |

From US10604509B2, “Nrf2 regulators” (GlaxoSmithKline Intellectual Property Development Limited, priority 2015, dated 2020)
